One test concerns Akt-pS473 in U87MG cells. The note with it: Homo sapiens, U-87 MG, read-out: U87 Akt-pS473 % Inhibition or IC50, nM (IC50), U87MG cells.
Test [1] has as its target mTOR (human recombinant aa mTOR 1360-2549) (Homo sapiens (Human), UniProt P42345). Nature of the test: mTOR enzymatic test by TR-FRET (phosphorylation of GFP-4EBP1). The class given is biochemical. The gist of the method:
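After a 30 min room-temperature kinase reaction, EDTA (10 mM final) and Tb-labelled phospho-Thr46 antibody (2 nM final) were added and incubated 60 min. Energy transfer from Tb to phosphorylated GFP-4EBP1 was read at 340 nm excitation, emissions 490/520 nm. Values derive from the 520/490 fluorescence ratio.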

In another test the target is PI3Kα (p110α/p85α) (Homo sapiens (Human), UniProt P42336). Nature of the test: PI3Kα enzymatic test by measuring the consumption of ATP. The class given is biochemical. The gist of the method: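 ATP consumption read out by KinaseGlo luminescence after a 90 min reaction of 1.7 μg/ml PI3Kα (p110α/p85α) with 2 μM ATP and 50 μM PIP2, buffered at pH 7.5 (Tris, 10 mM MgCl2, 1 mM EGTA, 0.03% Chaps, 1 mM DTT). Threefold dilution series over ≥10 000-fold range yield IC50.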
Chain of PI3Kα (p110α/p85α) (P42336 whole entry): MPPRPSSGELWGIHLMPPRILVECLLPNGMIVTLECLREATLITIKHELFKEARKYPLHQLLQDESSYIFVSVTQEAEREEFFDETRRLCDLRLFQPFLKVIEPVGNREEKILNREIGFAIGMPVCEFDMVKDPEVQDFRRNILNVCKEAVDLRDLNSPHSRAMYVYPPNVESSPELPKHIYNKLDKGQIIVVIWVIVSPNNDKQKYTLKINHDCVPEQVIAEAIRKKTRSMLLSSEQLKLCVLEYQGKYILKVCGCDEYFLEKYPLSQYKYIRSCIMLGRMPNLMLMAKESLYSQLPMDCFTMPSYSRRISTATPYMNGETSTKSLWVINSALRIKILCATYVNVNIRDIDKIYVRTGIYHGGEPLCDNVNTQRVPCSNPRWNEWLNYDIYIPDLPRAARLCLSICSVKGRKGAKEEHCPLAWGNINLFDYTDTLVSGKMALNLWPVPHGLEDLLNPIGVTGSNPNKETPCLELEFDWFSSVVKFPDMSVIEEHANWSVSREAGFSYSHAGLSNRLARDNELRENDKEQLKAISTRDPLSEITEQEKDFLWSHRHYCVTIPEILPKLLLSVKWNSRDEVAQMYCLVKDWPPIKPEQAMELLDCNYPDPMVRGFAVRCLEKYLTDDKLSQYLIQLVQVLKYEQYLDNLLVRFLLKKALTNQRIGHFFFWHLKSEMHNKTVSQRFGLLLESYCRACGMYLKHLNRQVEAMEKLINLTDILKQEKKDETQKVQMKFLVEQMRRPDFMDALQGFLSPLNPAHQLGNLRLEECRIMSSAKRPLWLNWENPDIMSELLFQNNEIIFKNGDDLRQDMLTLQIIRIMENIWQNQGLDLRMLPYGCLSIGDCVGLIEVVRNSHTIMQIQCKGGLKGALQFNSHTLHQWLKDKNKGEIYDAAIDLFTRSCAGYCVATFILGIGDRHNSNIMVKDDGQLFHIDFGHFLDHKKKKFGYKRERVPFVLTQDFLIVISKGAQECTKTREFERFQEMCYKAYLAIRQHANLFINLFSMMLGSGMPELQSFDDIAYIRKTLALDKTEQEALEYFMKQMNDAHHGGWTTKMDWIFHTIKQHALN
Chain of PI3Kα (p110α/p85α) (P27986 whole entry partner): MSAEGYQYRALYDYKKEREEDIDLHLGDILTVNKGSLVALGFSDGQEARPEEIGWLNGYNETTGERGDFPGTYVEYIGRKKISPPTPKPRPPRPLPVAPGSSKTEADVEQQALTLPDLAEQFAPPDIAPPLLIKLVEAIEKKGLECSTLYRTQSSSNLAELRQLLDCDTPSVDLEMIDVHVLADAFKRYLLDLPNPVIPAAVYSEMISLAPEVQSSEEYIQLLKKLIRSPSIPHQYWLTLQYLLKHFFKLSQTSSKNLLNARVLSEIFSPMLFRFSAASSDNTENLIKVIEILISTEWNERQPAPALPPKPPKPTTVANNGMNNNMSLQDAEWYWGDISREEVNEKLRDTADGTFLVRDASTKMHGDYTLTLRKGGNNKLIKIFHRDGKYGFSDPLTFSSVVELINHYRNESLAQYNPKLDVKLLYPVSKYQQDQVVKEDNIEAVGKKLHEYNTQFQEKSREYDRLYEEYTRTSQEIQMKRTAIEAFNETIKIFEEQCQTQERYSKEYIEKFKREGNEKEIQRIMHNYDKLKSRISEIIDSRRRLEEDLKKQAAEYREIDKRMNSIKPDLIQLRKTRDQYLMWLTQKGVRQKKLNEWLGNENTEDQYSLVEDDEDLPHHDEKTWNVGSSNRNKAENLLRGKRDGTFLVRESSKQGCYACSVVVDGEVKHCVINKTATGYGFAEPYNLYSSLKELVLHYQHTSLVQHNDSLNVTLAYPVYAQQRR

Another test has as its system U87MG tumour cells. Nature of the test: Test of in vitro proliferation of U87MG tumour cells. Particulars: Homo sapiens, U-87 MG, 72 h, U87MG cells, 72 hours; read-out: U87 Cell Proliferation IC50. The class given is cell-based. The procedure:
Model 4: Test of in vitro Proliferation of U87MG Tumour Cells.
The cell growth is determined with the reagent CellTiter 96 AQueous One Solution Cell Proliferation Assay from Promega (Cat. No. G3581).

We go through 16 compounds from US9120812B2, “Pyrimidooxazocine derivatives as mTOR-inhibitors” (SANOFI, priority 2012, dated 2015).

Chain of mTOR (human recombinant aa mTOR 1360-2549) (P42345 1360-2549): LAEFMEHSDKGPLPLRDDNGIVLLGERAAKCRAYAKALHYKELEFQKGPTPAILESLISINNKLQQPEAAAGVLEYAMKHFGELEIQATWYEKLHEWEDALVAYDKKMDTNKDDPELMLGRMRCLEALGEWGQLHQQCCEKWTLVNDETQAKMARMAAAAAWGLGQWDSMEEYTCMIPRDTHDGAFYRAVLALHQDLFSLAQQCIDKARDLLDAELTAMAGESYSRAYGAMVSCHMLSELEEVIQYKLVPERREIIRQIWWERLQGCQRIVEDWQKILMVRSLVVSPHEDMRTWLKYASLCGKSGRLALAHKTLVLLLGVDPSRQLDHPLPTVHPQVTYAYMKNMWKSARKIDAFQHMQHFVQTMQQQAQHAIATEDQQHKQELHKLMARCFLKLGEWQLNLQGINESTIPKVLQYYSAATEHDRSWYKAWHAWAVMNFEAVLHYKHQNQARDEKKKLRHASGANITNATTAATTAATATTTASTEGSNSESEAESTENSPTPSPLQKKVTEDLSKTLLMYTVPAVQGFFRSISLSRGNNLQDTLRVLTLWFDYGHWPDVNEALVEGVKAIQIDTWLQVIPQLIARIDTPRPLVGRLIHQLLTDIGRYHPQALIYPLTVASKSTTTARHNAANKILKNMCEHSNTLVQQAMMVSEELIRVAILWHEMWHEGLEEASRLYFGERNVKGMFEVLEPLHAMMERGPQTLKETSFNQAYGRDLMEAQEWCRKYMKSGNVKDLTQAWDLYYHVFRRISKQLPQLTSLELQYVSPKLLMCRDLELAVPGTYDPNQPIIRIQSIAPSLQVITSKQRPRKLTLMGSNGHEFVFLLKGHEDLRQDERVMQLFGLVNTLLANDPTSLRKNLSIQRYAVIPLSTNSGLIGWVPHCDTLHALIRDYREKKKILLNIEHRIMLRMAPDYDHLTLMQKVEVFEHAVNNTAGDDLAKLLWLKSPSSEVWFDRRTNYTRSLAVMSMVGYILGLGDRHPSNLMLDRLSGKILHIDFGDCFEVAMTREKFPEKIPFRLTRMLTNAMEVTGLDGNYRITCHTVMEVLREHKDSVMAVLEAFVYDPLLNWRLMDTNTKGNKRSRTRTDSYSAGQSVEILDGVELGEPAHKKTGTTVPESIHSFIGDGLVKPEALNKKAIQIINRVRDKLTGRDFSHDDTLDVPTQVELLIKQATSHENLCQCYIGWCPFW

Turning to `CN1CC(C)(C)Oc2nc(N3CC4CCC(C3)O4)nc(-c3ccc(NC(=O)Nc4ccncc4)c(F)c3)c2C1=O` [Example 83, 1-{2-Fluoro-4-[6,8,8-trimethyl-2-(8-oxa-3-azabicyclo[3.2.1]oct-3-yl)-5-oxo-5,6,7,8-tetrahydro-9-oxa-1,3,6-triazabenzocyclohepten-4-yl]phenyl}-3-pyridin-4-ylurea], the IC50 was 16 nM in the test on Akt-pS473 in U87MG cells, 20 nM in test [1] and 41 nM with U87MG tumour cells. The “PI3Ka IC50” value at PI3Kα (p110α/p85α) was found to be 1460 nM.
On the same counts, the results for `CCN1CC(C)(C)Oc2nc(N3CCOC[C@@H]3C)nc(-c3ccc(NC(=O)NCC(F)(F)F)c(F)c3)c2C1=O` [Example 149, 1-{4-[6-Ethyl-8,8-dimethyl-2-((S)-3-methylmorpholin-4-yl)-5-oxo-5,6,7,8-tetrahydro-9-oxa-1,3,6-triazabenzocyclohepten-4-yl]-2-fluorophenyl}-3-(2,2,2-trifluoroethyl)urea] are 154 nM, 113 nM, 854 nM and >10000 nM.
Regarding `COCCN1CC(C)(C)Oc2nc(N3CCOC[C@@H]3C)nc(-c3ccc(NC(=O)Nc4ccon4)cc3)c2C1=O` [Example 180, 1-Isoxazol-3-yl-3-{4-[6-(2-methoxyethyl)-8,8-dimethyl-2-((S)-3-methylmorpholin-4-yl)-5-oxo-5,6,7,8-tetrahydro-9-oxa-1,3,6-triazabenzocyclohepten-4-yl]phenyl}urea], the IC50 was 65 nM in the test with Akt-pS473 in U87MG cells, 11 nM in test [1] and 146 nM with U87MG tumour cells. Further, on PI3Kα (p110α/p85α), the “PI3Ka IC50” value was determined as 604 nM.
For the compound `CCN1CC(C)(C)Oc2nc(N3CC4CCC(C3)O4)nc(-c3ccc(NC(=O)Nc4cccc(OC(F)F)c4)cc3)c2C1=O` [Example 18, 1-(3-difluoromethoxyphenyl)-3-{4-[6-ethyl-8,8-dimethyl-2-(8-oxa-3-azabicyclo[3.2.1]oct-3-yl)-5-oxo-5,6,7,8-tetrahydro-9-oxa-1,3,6-triazabenzocyclohepten-4-yl]phenyl}urea], the results for the IC50 (in the test on Akt-pS473 in U87MG cells; in test [1]; with U87MG tumour cells) were 29 nM, 25 nM and 63 nM, respectively. For the same compound, the “PI3Ka IC50” value at PI3Kα (p110α/p85α) is 7570 nM.
As to `CCN1CC(C)(C)Oc2nc(N3CCOC[C@@H]3C)nc(-c3ccc(NC(=O)Nc4ccccc4F)cc3)c2C1=O` [Example 202, 1-{4-[6-Ethyl-8,8-dimethyl-2-((S)-3-methylmorpholin-4-yl)-5-oxo-5,6,7,8-tetrahydro-9-oxa-1,3,6-triazabenzocyclohepten-4-yl]phenyl}-3-(2-fluorophenyl)urea], the IC50 in the test on Akt-pS473 in U87MG cells worked out at 5 nM; in test [1] it was 19 nM; in the test with U87MG tumour cells it was 73 nM. Moreover, the “PI3Ka IC50” value at PI3Kα (p110α/p85α) was 213 nM.
On the same counts, the results for `COc1ccnc(NC(=O)Nc2ccc(-c3nc(N4CC5CCC(C4)O5)nc4c3C(=O)N(C)CC(C)(C)O4)cc2)c1` [Example 21, 1-(4-methoxypyridin-2-yl)-3-{4-[6,8,8-trimethyl-2-(8-oxa-3-azabicyclo[3.2.1]oct-3-yl)-5-oxo-5,6,7,8-tetrahydro-9-oxa-1,3,6-triazabenzocyclohepten-4-yl]phenyl}urea] are 51 nM, 15 nM, 549 nM and >10000 nM.
Turning to `CCN1CC(C)(C)Oc2nc(N3CC4CCC(C3)O4)nc(-c3ccc(NC(=O)NCC4CCS(=O)(=O)C4)c(F)c3)c2C1=O` (stereo not shown) [Example 129, 1-(1,1-Dioxotetrahydro-1λ6-thiophen-3-ylmethyl)-3-{4-[6-ethyl-8,8-dimethyl-2-(8-oxa-3-azabicyclo[3.2.1]oct-3-yl)-5-oxo-5,6,7,8-tetrahydro-9-oxa-1,3,6-triazabenzocyclohepten-4-yl]-2-fluorophenyl}urea], the IC50 was > 3000 nM in the test on Akt-pS473 in U87MG cells, 1380 nM in test [1] and > 10000 nM in the test with U87MG tumour cells. Besides, the “PI3Ka IC50” value at PI3Kα (p110α/p85α) was >10000 nM.
In the same order, the values of `CCN1CC(C)(C)Oc2nc(N3CC4CCC(C3)O4)nc(-c3ccc(NC(=O)Nc4ccc(N5CCS(=O)(=O)CC5)cc4)c(F)c3)c2C1=O` [Example 237, 1-[4-(1,1-Dioxo-1λ6-thiomorpholin-4-yl)phenyl]-3-{4-[6-ethyl-8,8-dimethyl-2-(8-oxa-3-azabicyclo[3.2.1]oct-3-yl)-5-oxo-5,6,7,8-tetrahydro-9-oxa-1,3,6-triazabenzocyclohepten-4-yl]-2-fluorophenyl}urea] are 80 nM, 39 nM, 49 nM and >7200 nM.
In the case of `CCN1CC(C)(C)Oc2nc(N3CCOC[C@@H]3C)nc(-c3ccc(NC(=O)Nc4cnccn4)c(F)c3)c2C1=O` [Example 160, 1-{4-[6-Ethyl-8,8-dimethyl-2-((S)-3-methylmorpholin-4-yl)-5-oxo-5,6,7,8-tetrahydro-9-oxa-1,3,6-triazabenzocyclohepten-4-yl]-2-fluorophenyl}-3-pyrazin-2-ylurea], the IC50 in the test with Akt-pS473 in U87MG cells stood at 114 nM; in test [1], 41 nM; with U87MG tumour cells it was 744 nM. Also, the “PI3Ka IC50” value at PI3Kα (p110α/p85α) is 4900 nM.
`CCN1CC(C)(C)Oc2nc(N3CC4CCC(C3)O4)nc(-c3ccc(NC(=O)OCCO)c(F)c3)c2C1=O` [Example 222, {4-[6-Ethyl-8,8-dimethyl-2-(8-oxa-3-azabicyclo[3.2.1]oct-3-yl)-5-oxo-5,6,7,8-tetrahydro-9-oxa-1,3,6-triazabenzocyclohepten-4-yl]-2-fluorophenyl}carbamic acid 2-hydroxyethyl ester]: the IC50 in the test with Akt-pS473 in U87MG cells was 213 nM; in test [1], 123 nM; in the test on U87MG tumour cells, 1680 nM. Moreover, on PI3Kα (p110α/p85α), the “PI3Ka IC50” value is given as >10000 nM.
As for `CCNC(=O)Nc1ccc(-c2nc(N3CCOC[C@@H]3C)nc3c2C(=O)N(CC)CC(C)(C)O3)cc1` [Example 98, 1-Ethyl-3-{4-[6-ethyl-8,8-dimethyl-2-((S)-3-methylmorpholin-4-yl)-5-oxo-5,6,7,8-tetrahydro-9-oxa-1,3,6-triazabenzocyclohepten-4-yl]phenyl}urea], the IC50 came to 20 nM in the test on Akt-pS473 in U87MG cells, 26 nM in test [1] and 184 nM in the test with U87MG tumour cells. Besides, the “PI3Ka IC50” value on PI3Kα (p110α/p85α) was determined as 1138 nM.
For `CCN1CC(C)(C)Oc2nc(N3CCOC[C@@H]3C)nc(-c3ccc(NC(=O)Nc4ccc(OC)cn4)c(F)c3)c2C1=O` [Example 163, 1-{4-[6-Ethyl-8,8-dimethyl-2-((S)-3-methylmorpholin-4-yl)-5-oxo-5,6,7,8-tetrahydro-9-oxa-1,3,6-triazabenzocyclohepten-4-yl]-2-fluorophenyl}-3-(5-methoxypyridin-2-yl)urea], the IC50 with Akt-pS473 in U87MG cells was 130 nM; in test [1] it was 55 nM; in the test on U87MG tumour cells, 1020 nM. Moreover, at PI3Kα (p110α/p85α), the “PI3Ka IC50” value stood at 3870 nM.
In the same order, the values of `CCN1CC(C)(C)Oc2nc(N3CC4CCC(C3)O4)nc(-c3ccc(NC(=O)Nc4ccc(C)nc4)c(F)c3)c2C1=O` [Example 185, 1-{4-[6-Ethyl-8,8-dimethyl-2-(8-oxa-3-azabicyclo[3.2.1]oct-3-yl)-5-oxo-5,6,7,8-tetrahydro-9-oxa-1,3,6-triazabenzocyclohepten-4-yl]-2-fluorophenyl}-3-(6-methylpyridin-3-yl)urea] are 20 nM, 24 nM, 73 nM and 5680 nM.
On the same counts, the results for `CCN1CC(C)(C)Oc2nc(N3CCOC[C@@H]3C)nc(-c3ccc(NC(=O)Nc4ccc(C(=O)NCC(C)(C)O)cc4)cc3)c2C1=O` [Example 219, 4-(3-{4-[6-Ethyl-8,8-dimethyl-2-((S)-3-methylmorpholin-4-yl)-5-oxo-5,6,7,8-tetrahydro-9-oxa-1,3,6-triazabenzocyclohepten-4-yl]phenyl}ureido)-N-(2-hydroxy-2-methylpropyl)benzamide] are 28 nM, 38 nM, 436 nM and 98 nM.
In the same order, the values of `CCNC(=O)Nc1ccc(-c2nc(N3CC4CCC(C3)O4)nc3c2C(=O)N(CC)CC(C)(C)CO3)cc1` [Example 10, 1-Ethyl-3-{4-[6-ethyl-8,8-dimethyl-2-(8-oxa-3-azabicyclo[3.2.1]oct-3-yl)-5-oxo-6,7,8,9-tetrahydro-5H-10-oxa-1,3,6-triazabenzocycloocten-4-yl]phenyl}urea] are 611 nM, 344 nM, 8770 nM and >10000 nM.
As to `CCN1CC(C)(C)Oc2nc(N3CC4CCC(C3)O4)nc(-c3ccc(NC(=O)Nc4ccc(C(F)(F)F)nc4)c(F)c3)c2C1=O` [Example 230, 1-{4-[6-Ethyl-8,8-dimethyl-2-(8-oxa-3-azabicyclo[3.2.1]oct-3-yl)-5-oxo-5,6,7,8-tetrahydro-9-oxa-1,3,6-triazabenzocyclohepten-4-yl]-2-fluorophenyl}-3-(6-trifluoromethylpyridin-3-yl)urea], the results for the IC50 (with Akt-pS473 in U87MG cells; in test [1]; in the test on U87MG tumour cells) were 18 nM, 77 nM and 58 nM, respectively. In addition, the “PI3Ka IC50” value at PI3Kα (p110α/p85α) is >10000 nM.
